Reference: ChEMBL document CHEMBL1201862, “PubChem BioAssay data set” (2004)
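The compound was tested at five concentrations on cells cultured in 96-well plates, with a 48-hour exposure period. Abbreviation: GI50, concentration required for 50% inhibition of growth.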 The source made the active and inactive calls. Rule as the data show it: active = GI50 up to about 1.1 µM and inactive = higher. Where a SMILES comes first, the peptide text is derived from it. [ ]: non-standard residue; d: D form. The star is where a group is joined. ξ: configuration not given here. ξD = NC(CC(=O)O)C(=O)O; Boc = CC(C)(C)OC(=O)*; Aib = CC(C)(N)C(=O)O; OtBu = CC(C)(C)O*

Columns and labels:
Test in all cases: NCI-60 cell line screen, 48 h
786-0 = test system: 786-0
A498 = test system: A498
A549 = test system: A549
ACHN = test system: ACHN
BT-549 = test system: BT-549
CAKI-1 = test system: CAKI-1
CCRF-CEM = test system: CCRF-CEM
COLO 205 = test system: COLO 205
DU-145 = test system: DU-145
EKVX = test system: EKVX
HCC 2998 = test system: HCC 2998
HCT-116 = test system: HCT-116
HCT-15 = test system: HCT-15
HL-60 = test system: HL-60
HOP-62 = test system: HOP-62
HOP-92 = test system: HOP-92
HT-29 = test system: HT-29
Hs-578T = test system: Hs-578T
IGROV-1 = test system: IGROV-1
K562 = test system: K562
KM12 = test system: KM12
LOX IMVI = test system: LOX IMVI
M14 = test system: M14
MCF7 = test system: MCF7
MDA-MB-231 = test system: MDA-MB-231
MDA-MB-435 = test system: MDA-MB-435
MDA-N = test system: MDA-N
MOLT-4 = test system: MOLT-4
Malme-3M = test system: Malme-3M
NCI-H226 = test system: NCI-H226
NCI-H23 = test system: NCI-H23
NCI-H460 = test system: NCI-H460
NCI-H522 = test system: NCI-H522
NCI/ADR-RES = test system: NCI/ADR-RES
OVCAR-3 = test system: OVCAR-3
OVCAR-4 = test system: OVCAR-4
OVCAR-5 = test system: OVCAR-5
OVCAR-8 = test system: OVCAR-8
PC-3 = test system: PC-3
RPMI-8226 = test system: RPMI-8226
RXF 393 = test system: RXF 393
SF-268 = test system: SF-268
SF-295 = test system: SF-295
SF-539 = test system: SF-539
SK-MEL-28 = test system: SK-MEL-28
SK-MEL-2 = test system: SK-MEL-2
SK-MEL-5 = test system: SK-MEL-5
SK-OV-3 = test system: SK-OV-3
SN12C = test system: SN12C
SNB-19 = test system: SNB-19
SNB-75 = test system: SNB-75
SW-620 = test system: SW-620
T47D = test system: T47D
TK-10 = test system: TK-10
U-251 = test system: U-251
UACC-257 = test system: UACC-257
UACC-62 = test system: UACC-62
UO-31 = test system: UO-31
SR = test system: SR

Measured: GI50

O=c1[nH]nc(Cc2ccccc2)n1/N=C/c1ccc([N+](=O)[O-])o1
active: BT-549 0.308 µM | Hs-578T 1 µM | LOX IMVI 0.659 µM | OVCAR-3 0.292 µM
inactive: 786-0 2.76 µM | A498 7.41 µM | A549 4.1 µM | ACHN 3.4 µM | CAKI-1 3.11 µM | CCRF-CEM 1.16 µM | COLO 205 1.89 µM | DU-145 3.77 µM | EKVX 3.77 µM | HCC 2998 3.99 µM | HCT-116 2.06 µM | HL-60 2.95 µM | HOP-62 3.08 µM | HOP-92 3.03 µM | HT-29 1.68 µM | IGROV-1 2.67 µM | K562 4.09 µM | KM12 2.15 µM | M14 2.24 µM | MCF7 1.86 µM | MDA-MB-231 3.38 µM | MDA-MB-435 1.57 µM | MDA-N 1.69 µM | MOLT-4 2.42 µM | Malme-3M 1.51 µM | NCI-H226 12.5 µM | NCI-H23 3.57 µM | NCI-H460 3.46 µM | NCI-H522 1.39 µM | NCI/ADR-RES 2.75 µM | OVCAR-4 4.92 µM | OVCAR-5 6.68 µM | OVCAR-8 2.16 µM | PC-3 3.15 µM | RPMI-8226 2.63 µM | RXF 393 1.88 µM | SF-268 2.59 µM | SF-295 7.62 µM | SF-539 2.11 µM | SK-MEL-28 2.2 µM | SK-MEL-2 3.56 µM | SK-MEL-5 1.83 µM | SK-OV-3 15.4 µM | SN12C 3.31 µM | SNB-19 4.83 µM | SNB-75 3.3 µM | SW-620 1.39 µM | T47D 6.7 µM | TK-10 4.36 µM | U-251 2.87 µM | UACC-257 3.56 µM | UACC-62 1.75 µM | UO-31 4.47 µM
2.08 µM: HCT-15

O=[N+]([O-])c1ccc(/C=N/Nc2nc3ccccc3[nH]2)o1
11.8 µM: HCT-15
inactive: 786-0 24.9 µM | A549 12.2 µM | BT-549 15 µM | CAKI-1 15.1 µM | CCRF-CEM 8.39 µM | COLO 205 10.6 µM | DU-145 13.9 µM | EKVX 22.8 µM | HCT-116 14.8 µM | HL-60 1.31 µM | HOP-62 15.8 µM | HOP-92 17.4 µM | HT-29 19.5 µM | Hs-578T 33.3 µM | IGROV-1 12.6 µM | K562 13.1 µM | KM12 10.6 µM | LOX IMVI 13.9 µM | M14 12.7 µM | MDA-MB-231 32.4 µM | MDA-MB-435 4.45 µM | MDA-N 7.57 µM | MOLT-4 11.2 µM | Malme-3M 13.8 µM | NCI-H226 22.2 µM | NCI-H23 16.2 µM | NCI-H460 17.5 µM | NCI-H522 13.3 µM | NCI/ADR-RES 24.6 µM | OVCAR-3 11.1 µM | OVCAR-4 8.69 µM | OVCAR-5 23.1 µM | OVCAR-8 16.7 µM | PC-3 15.3 µM | RPMI-8226 2.85 µM | RXF 393 14.6 µM | SF-268 24.4 µM | SF-295 16 µM | SF-539 4.09 µM | SK-MEL-28 8.91 µM | SK-MEL-5 4.14 µM | SK-OV-3 33.7 µM | SN12C 15.7 µM | SNB-19 26.5 µM | SNB-75 17.7 µM | SR 7.71 µM | SW-620 10.8 µM | T47D 13.6 µM | TK-10 19.2 µM | U-251 34 µM | UACC-257 21.2 µM | UO-31 18.7 µM

COc1cc(O)c2c(=O)c(OC)c(-c3ccc4c(c3)OCO4)oc2c1OC
inactive: 786-0 38.9 µM | A498 > 50 µM | A549 > 50 µM | ACHN > 50 µM | BT-549 13.4 µM | CAKI-1 > 50 µM | CCRF-CEM > 50 µM | COLO 205 > 50 µM | DU-145 > 50 µM | EKVX 39 µM | HCC 2998 > 50 µM | HCT-116 49.7 µM | HL-60 > 50 µM | HOP-62 21.8 µM | HOP-92 7.6 µM | HT-29 > 50 µM | Hs-578T 28.1 µM | IGROV-1 > 50 µM | K562 > 50 µM | KM12 > 50 µM | LOX IMVI > 50 µM | M14 > 50 µM | MCF7 > 50 µM | MDA-MB-231 32 µM | MDA-MB-435 > 50 µM | MDA-N > 50 µM | MOLT-4 > 50 µM | Malme-3M > 50 µM | NCI-H226 > 50 µM | NCI-H23 > 50 µM | NCI-H460 > 50 µM | NCI-H522 > 50 µM | NCI/ADR-RES > 50 µM | OVCAR-3 > 50 µM | OVCAR-4 > 50 µM | OVCAR-5 > 50 µM | OVCAR-8 19.1 µM | PC-3 > 50 µM | RXF 393 18.9 µM | SF-268 21.7 µM | SF-295 29 µM | SF-539 18.5 µM | SK-MEL-28 > 50 µM | SK-MEL-2 > 50 µM | SK-MEL-5 22.5 µM | SK-OV-3 21.7 µM | SN12C > 50 µM | SNB-19 25.9 µM | SNB-75 11.6 µM | SW-620 > 50 µM | T47D > 50 µM | TK-10 > 50 µM | U-251 12.9 µM | UACC-257 > 50 µM | UACC-62 > 50 µM | UO-31 > 50 µM
> 50 µM: HCT-15

COC(=O)C(C)(C)NC(=O)C(C)(C)NC(=O)C(CC(=O)OC(C)(C)C)NC(=O)OC(C)(C)C (centres undefined) (Boc-[ξD](OtBu)-[Aib]-[Aib]-OMe)
inactive: 786-0 > 100 µM | A498 > 100 µM | A549 > 100 µM | ACHN > 100 µM | BT-549 > 100 µM | CAKI-1 > 100 µM | CCRF-CEM > 100 µM | COLO 205 > 100 µM | DU-145 > 100 µM | EKVX > 100 µM | HCT-116 > 100 µM | HOP-62 > 100 µM | HOP-92 > 100 µM | HT-29 > 100 µM | Hs-578T > 100 µM | IGROV-1 > 100 µM | K562 > 100 µM | KM12 > 100 µM | LOX IMVI > 100 µM | M14 > 100 µM | MCF7 > 100 µM | MDA-MB-231 > 100 µM | MDA-MB-435 > 100 µM | MDA-N > 10 µM | MOLT-4 > 100 µM | Malme-3M > 100 µM | NCI-H226 > 100 µM | NCI-H23 > 100 µM | NCI-H460 > 100 µM | NCI-H522 > 100 µM | NCI/ADR-RES > 100 µM | OVCAR-3 > 100 µM | OVCAR-4 > 100 µM | OVCAR-5 > 100 µM | OVCAR-8 > 100 µM | PC-3 > 100 µM | RPMI-8226 > 100 µM | RXF 393 > 100 µM | SF-268 3.71 µM | SF-295 > 100 µM | SF-539 > 100 µM | SK-MEL-28 > 100 µM | SK-MEL-2 > 100 µM | SK-MEL-5 > 100 µM | SK-OV-3 > 100 µM | SNB-19 > 100 µM | SNB-75 > 100 µM | SW-620 > 100 µM | T47D > 100 µM | TK-10 > 100 µM | U-251 > 100 µM | UACC-257 > 100 µM | UACC-62 > 100 µM | UO-31 > 100 µM
> 100 µM: HCT-15

COC(=O)Nc1nc2cc(NS(=O)(=O)c3cccs3)ccc2[nH]1
inactive: 786-0 34.3 µM | A498 28 µM | A549 43.9 µM | ACHN 42.8 µM | BT-549 71.8 µM | CAKI-1 30.4 µM | CCRF-CEM 34.8 µM | COLO 205 20.7 µM | DU-145 47.3 µM | EKVX 22.4 µM | HCT-116 18.4 µM | HL-60 23 µM | HOP-62 26.4 µM | HOP-92 16.3 µM | HT-29 23 µM | Hs-578T 10.4 µM | IGROV-1 10.9 µM | K562 5.53 µM | KM12 13.7 µM | LOX IMVI 36.3 µM | M14 21.5 µM | MCF7 17.8 µM | MDA-MB-231 31 µM | MDA-MB-435 3.62 µM | MDA-N 3.56 µM | MOLT-4 13.6 µM | Malme-3M 10.4 µM | NCI-H226 32.2 µM | NCI-H23 30.5 µM | NCI-H460 32.2 µM | NCI-H522 6.55 µM | NCI/ADR-RES 25.1 µM | OVCAR-3 14.6 µM | OVCAR-4 38.9 µM | OVCAR-5 37.2 µM | OVCAR-8 36.4 µM | PC-3 33.9 µM | RPMI-8226 35.1 µM | RXF 393 19.3 µM | SF-268 38.3 µM | SF-295 24.9 µM | SF-539 29.2 µM | SK-MEL-28 19.3 µM | SK-MEL-2 76.6 µM | SK-MEL-5 18.6 µM | SK-OV-3 28.4 µM | SN12C 39.1 µM | SNB-19 23.2 µM | SNB-75 20.7 µM | SW-620 20.7 µM | T47D 28.7 µM | TK-10 25.9 µM | U-251 30.4 µM | UACC-62 17 µM | UO-31 30.1 µM
14.3 µM: HCT-15
